{"source": "paper PMC10300873", "about": "“Characterization of Polyphenols from Chenopodium botrys after Fractionation with Different Solvents and Study of Their In Vitro Biological Activity” (Molecules, 2023)", "test_system": "T1, trypsin", "T1 construct": "gene PRSS1", "experiment": "antitryptic activity: albumin digestion, perchloric acid precipitation, A280", "assay_type": "biochemical", "settings": "human albumin (4% v/v) as substrate, Tris-HCl pH 7.4, 37 °C, 5 min preincubation, 20 min reaction", "from_the_text": "antitryptic activity: albumin digestion, perchloric acid precipitation, A280 on trypsin", "data": [{"smiles": "CC(C)Cc1ccc(C(C)C(=O)O)cc1", "note": "(stereo not shown) [ibuprofen]", "values": [{"measurement": "ATA / IC50 ± SD", "result": "259.82 ± 9.14", "unit": "µg/mL"}]}]}
